Measured values taken from patent publication US20120034193A1, “TREATMENT OF NEUROTROPHIC FACTOR MEDIATED DISORDERS” (priority 2009, published 2012).

Legend:
[1] = Tissue distribution after a single oral administration, dog; assay type: in vivo; conditions: 25 mg/kg single oral
[2] = system: Rat cortical neurones; experiment: Reversal of glutamate-induced damage in cortical neurones; assay type: cell-based; conditions: 30 nM for 24 h after glutamate 100 μM 10 min
Experimental: The rat cortical neurones were prepared as detailed above. On day 13, cultures were exposed to glutamate (100 μM) for 10 min at 37° C. in 5% CO2/95% air atmosphere in defined medium. Following the incubation period, the cultures were washed and maintained in fresh medium, containing sarsasapogenin, smilagenin or vehicle. Cells were cultured for a further 24 h after glutamate exposure and were then assessed for neuronal damage as detailed above.

[3] = system: Rat dopaminergic neurones; experiment: Pre-treatment against MPP+-induced loss of dopaminergic neurones; assay type: cell-based; conditions: 30 nM, 24 h before and during MPP+ 2 μM 48 h
Experimental: Rat dopaminergic neurones were cultured as previously described (Schinelli et al., Journal of Neurochemistry, 1988, 50, pp. 1900-1907). On day 5, the cultures were washed and placed in fresh medium containing test compounds (30 nM), vehicle (DMSO, 0.25%) or a combination of BDNF (1.85 nM) and GDNF (0.17 nM) for 24 h.
Exposure of rat primary dopaminergic neurones to MPP^+ (2 μM, 24 h) causes a significant decrease in the number of dopaminergic neurones compared to the control. On day 6, MPP^+ (2 μM) was added to the cultures in the presence of test compounds, vehicle or a combination of BDNF and GDNF for a further 48 h. MPP^+ induces neuronal death, via inhibition of complex I in the mitochondria and consequent ATP depletion, resulting in the production of free radicals and induction of apoptosis. After the incubation period, the cultures were fixed with paraformaldehyde in PBS (4%). After fixation, the neurones were permeabilised with Triton ×100 (0.05%) for 30 min. The neurones were then incubated with anti-tyrosine hydroxylase (TH) at 37° C. for 2 h. The neurones were washed three times with PBS, and then incubated with goat anti mouse/Cy3 for 2 h at 37° C. The neurones were mounted and examined with the fluorescence microscopy.

[4] = system: BDNF; experiment: Brain BDNF in aged rats (ELISA); assay type: in vivo, Sprague Dawley (SD) rats; conditions: 18 mg/kg/day oral, 3 months, aged 1.21, young 1.65
Experimental: Old Sprague Dawley (SD) rats (20 month old) were orally administered sarsasapogenin or smilagenin (18 mg/kg/day) for 3 months. […] Young SD rats (4 month old) were used as healthy positive control. At the end of the treatment the brains removed for quantification of BDNF using an ELISA.

[5] = system: rat primary cortical neurones; experiment: ChAT positive neurones and neurite outgrowth after β-amyloid exposure; assay type: cell-based; conditions: 10 μM pre-incubation 48 h, then β-amyloid 10 μg/ml 48 h
Experimental: Rat cortical neurones were cultured by modification of a method previously described (Eckenstein and Sofroniew, Journal of Neuroscience, 1983, 3, pp. 2286-2291). On day 8, the culture medium was changed to a medium containing vehicle (DMSO, 0.5%) or smilagenin or sarsasapogenin (10 μM). On day 10, rat primary cortical neurones were exposed to β-amyloid (10 μg/ml) for 48 h at 37° C. and the concentration of BDNF in the culture medium, the number of choline acetyltransferase (ChAT) positive cells, and the neurite outgrowth was measured (smilagenin only).

[6] = Tissue distribution after a single oral administration, rat; assay type: in vivo; conditions: 30 mg/kg single oral
[7] = system: Rat cortical neurones; experiment: Neuronal survival and neurite outgrowth of cortical neurones cultured in the absence of serum; assay type: cell-based; conditions: 30 nM, one day, no serum
Experimental: Rat cortical neurones were cultured following the method described above.
The test compounds were added for 24 h.
Rat cortical neurones were exposed to sarsasapogenin, smilagenin (30 nM) or vehicle (DMSO, 0.25%) in the absence FBS or FCS for one day. Cortical neurones were stained using a monoclonal antibody anti β-tubulin diluted and an anti mouse Immunoglobulin G diluted. These antibodies stained neurone cell bodies (quantifying the neuroprotective effect) and neurites (quantifying the neurotrophic effect). An epifluorecence microscope (magnification ×20) with a camera took 2 pictures per well (10 pictures per condition). Analyses of the number of cells labelled with anti β-tubulin antibodies and of the total number of cells was performed using LUCIA 6.0 software.

Compound: C[C@H]1CC[C@@]2(OC1)O[C@H]1C[C@H]3[C@@H]4CC[C@@H]5C[C@@H](O)CC[C@]5(C)[C@H]4CC[C@]3(C)[C@H]1[C@@H]2C [Sarsasapogenin, sarsasapogenin]
- Concentration of compound, Brain ([1]; Dog F, 4 h): 0.128 ng equivalents/g tissue
- Concentration of compound, Plasma ([1]; Dog F, 4 h): 0.184 ng equivalents/g tissue
- Concentration of compound, Spinal cord ([1]; Dog F, 4 h): 0.515 ng equivalents/g tissue
- Concentration of compound, Brain ([1]; Dog F, 24 h): 8.64 ng equivalents/g tissue
- Concentration of compound, Plasma ([1]; Dog F, 24 h): 1.79 ng equivalents/g tissue
- Concentration of compound, Spinal cord ([1]; Dog F, 24 h): 5.79 ng equivalents/g tissue
- Concentration of compound, Brain ([1]; Dog F, 168 h): 0.535 ng equivalents/g tissue
- Concentration of compound, Plasma ([1]; Dog F, 168 h): 0.115 ng equivalents/g tissue
- Concentration of compound, Spinal cord ([1]; Dog F, 168 h): 1.43 ng equivalents/g tissue
- Concentration of compound, Brain ([1]; Dog M, 4 h): 1.37 ng equivalents/g tissue
- Concentration of compound, Plasma ([1]; Dog M, 4 h): 0.641 ng equivalents/g tissue
- Concentration of compound, Spinal cord ([1]; Dog M, 4 h): 1.13 ng equivalents/g tissue
- Concentration of compound, Brain ([1]; Dog M, 24 h): 2.33 ng equivalents/g tissue
- Concentration of compound, Plasma ([1]; Dog M, 24 h): 0.196 ng equivalents/g tissue
- Concentration of compound, Spinal cord ([1]; Dog M, 24 h): 1.82 ng equivalents/g tissue
- Concentration of compound, Brain ([1]; Dog M, 168 h): 0.605 ng equivalents/g tissue
- Concentration of compound, Plasma ([1]; Dog M, 168 h): 0.309 ng equivalents/g tissue
- Concentration of compound, Spinal cord ([1]; Dog M, 168 h): 1.49 ng equivalents/g tissue
- Neuronal survival (% of control) [2]: 103.43 ± 5.10 % of control
- Neuronal survival (% of control) [3]: 88.73 ± 4.39 % of control
- BDNF (ng/g tissue) [4]: 1.41 ± 0.07 ng/g tissue
- Number of ChAT positive neurones per field (% of control) [5]: 71.6 ± 3.7 % of control
- Concentration of compound, Brain ([6]; Rat F, 1 h): 1210 ng equivalents/g tissue
- Concentration of compound, Plasma ([6]; Rat F, 1 h): 1530 ng equivalents/g tissue
- Concentration of compound, Spinal cord ([6]; Rat F, 1 h): 3020 ng equivalents/g tissue
- Concentration of compound, Brain ([6]; Rat F, 4 h): 3860 ng equivalents/g tissue
- Concentration of compound, Plasma ([6]; Rat F, 4 h): 2050 ng equivalents/g tissue
- Concentration of compound, Spinal cord ([6]; Rat F, 4 h): 3830 ng equivalents/g tissue
- Concentration of compound, Brain ([6]; Rat F, 8 h): 5980 ng equivalents/g tissue
- Concentration of compound, Plasma ([6]; Rat F, 8 h): 1760 ng equivalents/g tissue
- Concentration of compound, Spinal cord ([6]; Rat F, 8 h): 5080 ng equivalents/g tissue
- Concentration of compound, Brain ([6]; Rat F, 24 h): 2800 ng equivalents/g tissue
- Concentration of compound, Plasma ([6]; Rat F, 24 h): 629 ng equivalents/g tissue
- Concentration of compound, Spinal cord ([6]; Rat F, 24 h): 3290 ng equivalents/g tissue
- Concentration of compound, Brain ([6]; Rat F, 168 h): 134 ng equivalents/g tissue
- Concentration of compound, Plasma ([6]; Rat F, 168 h): 90 ng equivalents/g tissue
- Concentration of compound, Spinal cord ([6]; Rat F, 168 h): 590 ng equivalents/g tissue
- Concentration of compound, Brain ([6]; Rat M, 1 h): 1140 ng equivalents/g tissue
- Concentration of compound, Plasma ([6]; Rat M, 1 h): 1690 ng equivalents/g tissue
- Concentration of compound, Spinal cord ([6]; Rat M, 1 h): 1090 ng equivalents/g tissue
- Concentration of compound, Brain ([6]; Rat M, 4 h): 4970 ng equivalents/g tissue
- Concentration of compound, Plasma ([6]; Rat M, 4 h): 2920 ng equivalents/g tissue
- Concentration of compound, Spinal cord ([6]; Rat M, 4 h): 4350 ng equivalents/g tissue
- Concentration of compound, Brain ([6]; Rat M, 8 h): 6920 ng equivalents/g tissue
- Concentration of compound, Plasma ([6]; Rat M, 8 h): 2970 ng equivalents/g tissue
- Concentration of compound, Spinal cord ([6]; Rat M, 8 h): 6060 ng equivalents/g tissue
- Concentration of compound, Brain ([6]; Rat M, 24 h): 3800 ng equivalents/g tissue
- Concentration of compound, Plasma ([6]; Rat M, 24 h): 967 ng equivalents/g tissue
- Concentration of compound, Spinal cord ([6]; Rat M, 24 h): 4720 ng equivalents/g tissue
- Concentration of compound, Brain ([6]; Rat M, 168 h): 194 ng equivalents/g tissue
- Concentration of compound, Plasma ([6]; Rat M, 168 h): 149 ng equivalents/g tissue
- Concentration of compound, Spinal cord ([6]; Rat M, 168 h): 747 ng equivalents/g tissue
- Neurite outgrowth (% of control) [7]: 152.85 ± 10.68 % of control
- Neuronal survival (% of control) [7]: 149.55 ± 6.22 % of control
